Experiment in all cases: relative viability (nuclei count vs DMSO), 5 days (fraction); higher = more cells survive
Compound in assay [1]: N#CC1(c2ccc(NC(=O)c3cccnc3NCc3ccncc3)cc2)CCCC1 [Apatinib] + NC(=O)Nc1cc(-c2cccc(F)c2)sc1C(=O)N[C@H]1CCCNC1 [AZD7762] (partner 0.2 µM)
An outline of the steps: (§1)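 The day after seeding in 1536-well plates, lung cancer cell lines were treated by pin tool with a single drug, or with a fixed anchor-drug dose together with five library-drug doses (not always all listed) in √10 steps. After 5 days, a combined fix-and-stain solution (final 0.05% Triton X-100, 1% formaldehyde, 1 ug/ml Hoechst) was added. Nuclei counted on 4× images gave relative viability as treated counts over vehicle counts, reported as the median of duplicate plates.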

Compound in assay [2]: CN(C)C(=N)NC(=N)N [Metformin] + CC(C)C[C@H](NC(=O)[C@H](Cc1ccccc1)NC(=O)c1cnccn1)B(O)O [Bortezomib] (partner 0.002 µM)
An outline of the steps:
as §1

Compound in assay [3]: N#CC1(c2ccc(NC(=O)c3cccnc3NCc3ccncc3)cc2)CCCC1 [Apatinib] + COc1cc2c(Oc3ccc(NC(=O)C4(C(=O)Nc5ccc(F)cc5)CC4)cc3F)ccnc2cc1OCCCN1CCOCC1 [Foretinib] (partner 0.25 µM)
An outline of the steps: as §1

Compound in assay [4]: CN(C)C(=N)NC(=N)N [Metformin] + Nc1ncn([C@H]2C[C@H](O)[C@@H](CO)O2)c(=O)n1 [Decitabine] (partner 2 µM)
An outline of the steps: as §1

With NCI-H460, the relative viability in assay [1] (first compound 0.08 µM) stood at 0.538; in assay [1] (first compound 0.253 µM), 0.581; in assay [1] (first compound 0.8 µM), 0.417; in assay [1] (first compound 2.53 µM) it was 0.269; in assay [1] (first compound 8 µM), 0.394; in assay [2] (first compound 31.62 µM), 1.12. Also, the relative viability in assay [2] (first compound 100 µM) was found to be 1.11; in assay [2] (first compound 316.23 µM), 1.06; in assay [2] (first compound 1000 µM), 1.19; in assay [3] (first compound 0.08 µM), 0.941; in assay [3] (first compound 0.253 µM) it was 0.943; in assay [3] (first compound 0.8 µM), 0.942. In addition, the relative viability in assay [3] (first compound 2.53 µM) was 1.04; in assay [3] (first compound 8 µM) it was 0.897; in assay [4] (first compound 31.62 µM), 0.444; in assay [4] (first compound 100 µM), 0.493; in assay [4] (first compound 316.23 µM) it was 0.412; in assay [4] (first compound 1000 µM), 0.469.

These data come from the supplement of paper PMC10307832.
